In publication PMC12505967, “Inhibition of the assembly of Plasmodium Hsp70-1 and Hsp40 complex blocks DNA replication by destabilizing ribonucleotide reductase subunit-2” (mBio, 2025):

Tests used:
PfHsp70-1 = target: T1, PfHsp70-1 (Plasmodium falciparum, UniProt Q8IB24); type: biochemical; conditions: basal ATPase without cochaperone; 50 µM ATP, 2 µM protein, 2 mM MgCl2, pH 7.5, 37°C
T1 construct: gene PF3D7_0818900; full length, N-terminal His6 tag (pET28a), E. coli Rosetta (DE3), Ni-NTA; tag kept

PfHsp70-1 + PfYdj1 = target: T2, PfHsp70-1 + PfYdj1 (Plasmodium falciparum, UniProt Q8IB24); assay: EnzChek phosphate ATPase assay; type: biochemical; conditions: inhibits PfYdj1-stimulated ATP hydrolysis; 1 and 20 µM compound (21 µM in figure legend); 50 µM ATP, 2 µM each protein, 2 mM MgCl2, pH 7.5, 37°C
T2 construct: gene PF3D7_0818900; both full length, N-terminal His6 tag (pET28a), E. coli, Ni-NTA; tags kept; with HSP40, subfamily A

[1] = target: Recombinant PfHsp70-1 (His6-tagged, purified) (Plasmodium falciparum 3D7) (UniProt Q8IB24); conditions: scale: µM min^−1 per µM concentration of the enzyme

## Nc1ncnc2c1ncn2[C@@H]1O[C@H](COP(=O)(O)OP(=O)(O)OP(=O)(O)O)[C@@H](O)[C@H]1O [ATP]
PfHsp70-1
  EnzChek phosphate ATPase assay: PfHsp70-1 showed a basal level of ATPase activity

## CC1=C(C(=O)OCc2ccccc2)C(c2ccc(-c3ccccc3)cc2)NC(=O)N1CCCCCC(=O)O (stereo not drawn) [116-9e]
PfHsp70-1 + PfYdj1
  EnzChek phosphate ATPase assay: observed a reduced stimulation of PfYdj1-mediated ATP hydrolysis of PfHsp70-1 in a dose-dependent manner

B1: Recombinant PfSis1 (His6-tagged, purified) (natural protein)
chain: MGKDYYSILGVSRDCTTNDLKKAYRKLAMMWHPDKHNDEKSKKEAEEKFKNIAEAYDVLADEEKRKIYDTYGEEGLKGSIPTGGNTYVYSGVDPSELFSRIFGSDGQFSFTSTFDEDFSPFSTFVNMTSRKSRPSTTTNINTNNYNKPATYEVPLSLSLEELYSGCKKKLKITRKRFMGTKSYEDDNYVTIDVKAGWKDGTKITFYGEGDQLSPMAQPGDLVFKVKTKTHDRFLRDANHLIYKCPVPLDKALTGFQFIVKSLDNRDINVRVDDIVTPKSRKIVAKEGMPSSKYPSMKGDLIVEFDIVFPKSLTSEKKKIIRETLANTF
[1]
  PfSis1-induced rate of ATP hydrolysis of PfHsp70-1 without and with 1 µM and 20 µM 116-9e (0.37 without, 0.322 at 1 µM, 0.087 at 20 µM): 0.37
